The values that follow come from patent publication US12319655B2, “RAF kinase inhibitors and methods of use thereof” (Deciphera Pharmaceuticals, LLC, priority 2021, dated 2025).

In the first experiment the test system is WM3629 cells. Nature of the experiment: WM3629 Cell Proliferation Assay (1).
Conditions: not given
Type of experiment: cell-based. As to the method: WM3629 Cell Proliferation Assay (1)
WM3629 cells (#WM3629-01-0001) are obtained from Rockland Immunochemicals Inc (Gilbertsville, PA). Briefly, cells were grown in MCDB 153 medium (Sigma, #M7403, St. Louis, MO) supplemented with 20% Leibovitz's L-15 (ThermoFisher #11415-064, Waltham, MA), 2% heat inactivated fetal bovine serum (ThermoFisher, #A3840001, Waltham, MA), 5 μg/mL Insulin (Bovine Pancreas) (Sigma, #10516, St. Louis, MO), 1.68 mM Calcium Chloride (Sigma, #C-34006, St. Louis, MO) and 1% Penicillin/Streptomycin/L-Glutamine (ThermoFisher #10378016, Waltham, MA) at 37° C., 5% CO2, and 95% humidity. Cells are expanded until reaching 70-95% confluency at which point they are subcultured or harvested for assay use. A serial dilution of test compound is dispensed into a 96-well black clear bottom plate in triplicate. Four thousand five hundred cells are added per well in 200 μL complete growth medium in the 96-well plate. Plates are incubated for 67-72 hours at 37° C., 5% CO2, and 95% humidity. At the end of the incubation, 40 μL of a 440 μM solution of resazurin (Sigma, #199303, St. Louis, MO) in PBS is added to each well of the plate and plates are incubated for an additional 6-7 hours at 37° C., 5% CO2, and 95% humidity. Plates are read on a Synergy2 or equivalent reader (Biotek, Winooski VT) using an excitation of 540 nm and an emission of 600 nm. Data is analyzed using Prism software (GraphPad, San Diego, CA) to calculate IC50 values.
Broadly, the IC50 is the midpoint of a concentration-inhibition curve. As to `Cc1ccc(NC(=O)c2ccnc(C3(C#N)CC3)c2)cc1-c1ccnc(-c2ccnc(NC(=O)C3CC3)c2)n1` [Example 180], the IC50 is not above 100 nM.
As for `CNC(=O)c1cc(-c2cc(-c3cc(NC(=O)c4ccnc(C5(C#N)CC5)c4)ccc3C)ncn2)ccn1` [Example 178], the half-inhibitory concentration (IC50) is not above 100 nM.
The same measure, in the same setting: under `Cc1ncc(NC(=O)c2ccnc(C(C)(C)C#N)c2)cc1-c1cccc(-c2cc(NC(=O)C3CC3)ncn2)c1` [Example 181] stands not above 100 nM.

Another experiment relates to H2405 cells. Nature of the experiment: H2405 Cell Proliferation Assay (1). Particulars: Homo sapiens, NCI-H2405. The format is cell-based. As to the method:
H2405 Cell Proliferation Assay (1)
H2405 cells (catalog #CRL-5994) are obtained from the American Type Culture Collect (ATTC, Manassas, VA). Briefly, cells were grown in RPMI 1640 supplemented with 5% characterized fetal bovine serum (Invitrogen, Carlsbad, CA) and 1% Penicillin/Streptomycin/L-Glutamine at 37° C., 5% CO2, and 95% humidity. Cells are expanded until reaching 70-95% confluency at which point they are sub-cultured or harvested for assay use. A serial dilution of test compound is dispensed into a 96-well black clear bottom plate in triplicate. Three thousand cells are added per well in 200 μL complete growth medium in the 96-well plate. Plates are incubated for 67-72 h at 37° C., 5% CO2, and 95% humidity. At the end of the incubation, 40 μL of a 440 μM solution of resazurin (Sigma, St. Louis, MO) in PBS is added to each well of the plate and plates are incubated for an additional 5-6 h at 37° C., 5% CO2, and 95% humidity. Plates are read on a Synergy2 or equivalent reader (Biotek, Winooski VT) using an excitation of 540 nm and an emission of 600 nm. Data is analyzed using Prism software (GraphPad, San Diego, CA) to calculate IC50 values.
Take `Cc1ccc(NC(=O)c2ccnc(C(C)(C)C#N)c2)cc1-c1ccnc(-c2ccnc(C(=O)NC3CC3)c2)c1` [Example 162]: the IC50 is 100 to 500 nM.
As to `CC(=O)Nc1cc(-c2cc(-c3cc(NC(=O)c4ccnc(C(F)(F)F)c4)ccc3C)ccn2)ccn1` [Example 6], the IC50 is not above 100 nM.
`Cc1ncc(NC(=O)c2ccnc(C(C)(C)C#N)c2)cc1-c1cccc(-c2ccnc3[nH]cnc23)c1` [Example 111]: the IC50 fell in the range of 1000 to 10000 nM.
On to `Cc1ncc(NC(=O)c2ccnc(C(C)(C)C#N)c2)cc1-c1cccc(-c2ncnc3[nH]ncc23)c1` [Example 129], for which the IC50 was 100 to 500 nM.
For the compound `COCC(=O)Nc1cc(-c2cccc(-c3cc(NC(=O)c4ccnc(C(F)(F)F)c4)cnc3C)n2)ccn1` [Example 130], the IC50 was in the range of 100 to 500 nM.
For the compound `CNC(=O)c1cc(-c2cc(-c3cc(NC(=O)c4ccnc(C(C)(C)C#N)c4)ccc3C)cc(C3CC3)n2)ccn1` [Example 163], the IC50 is not above 100 nM.
Same read-out and setting: the result for `Cc1ccc(NC(=O)c2ccnc(C3(C#N)CC3)c2)cc1-c1ccnc(-c2ccnc(NC(=O)C3CC3)c2)n1` [Example 180] reads not above 100 nM.
The same measure, in the same setting: under `CNC(=O)c1cc(-c2cccc(-c3cc(NC(=O)c4ccnc(C(C)(C)C#N)c4)ccc3C)c2)ncn1` [Example 171] stands 100 to 500 nM.
As to `CNC(=O)c1cc(-c2nccc(-c3cc(NC(=O)c4ccnc(C(C)(C)C#N)c4)c(F)cc3C)n2)ccn1` [Example 166], the IC50 lay within 500 to 1000 nM.
On to `Cc1ccc(NC(=O)c2ccnc(C(C)(C)C#N)c2)cc1-c1cncc(-c2ccnc(NC(=O)C3CC3)c2)n1` [Example 112], for which the IC50 is not above 100 nM.
With `CNC(=O)c1cc(-c2cc(-c3cc(NC(=O)c4ccnc(C5(C#N)CC5)c4)ccc3C)ncn2)ccn1` [Example 178], the IC50 lay within 100 to 500 nM.
The same measure, in the same setting: under `CC(=O)Nc1cc(-c2cncc(-c3cc(NC(=O)c4cccc(C(C)(C)C#N)c4)ccc3C)n2)ccn1` [Example 125] stands not above 100 nM; under `Cc1ccc(NC(=O)c2ccnc(C(C)(C)C#N)c2)cc1-c1cccc(-c2ccnc3[nH]ncc23)c1` [Example 134], 100 to 500 nM; under `CC(=O)Nc1cc(-c2cncc(-c3cc(NC(=O)c4cc(C(F)(F)F)ccn4)ccc3C)n2)ccn1` [Example 124], not above 100 nM.
The same measure, in the same setting: the result for `CNC(=O)c1cc(-c2cc(-c3cc(NC(=O)c4ccnc(C(C)(C)C#N)c4)c(F)cc3C)ccn2)ccn1` [Example 176] reads 100 to 500 nM; that for `Cc1ncc(NC(=O)c2ccnc(C(C)(C)C#N)c2)cc1-c1cccc(-c2cc(NC(=O)C3CC3)ncn2)c1` [Example 181], not above 100 nM.
On to `Cc1ccc(NC(=O)c2ccnc(C(C)(C)C#N)c2)cc1-c1cccc(-c2ccnc3[nH]ccc23)c1` [Example 133], for which the IC50 lay within 500 to 1000 nM.
The same measure, in the same setting: under `Cc1ccc(NC(=O)c2ccnc(C(F)(F)F)c2)cc1-c1ccnc(-c2ccnc(N)c2)n1` [Example 122] stands 1000 to 10000 nM; under `Cc1ncc(NC(=O)c2ccnc(C3CC3)c2)cc1-c1cccc(-c2ncnc3[nH]ncc23)c1` [Example 131], 1000 to 10000 nM.
Still for that read-out and setting: the result for `Cc1cc(F)c(NC(=O)c2ccnc(C(C)(C)C#N)c2)cc1-c1ccnc(-c2ccnc(NC=O)c2)c1` [Example 104] reads not above 100 nM; that for `Cc1ccc(NC(=O)c2cccc(C(C)(C)C#N)c2)cc1-c1cc(OCCO)nc(-c2ccnc3c2CC(=O)N3)c1` [Example 108], not above 100 nM; that for `CC(=O)Nc1cc(-c2ccnc(-c3cc(NC(=O)c4ccnc(C(C)(C)C#N)c4)ccc3C)n2)ccn1` [Example 103], not above 100 nM.
